The EC50 is the midpoint of the concentration-response curve. In general, CC50 refers to the concentration that lowers cell viability or growth by half.

Our source for the EC50 and CC50 values is patent US20250122219A1 (priority 2023, published 2025).

The subject of one data set is HIV-1 (IIIB). Briefly: Antiviral assay in MT-4 cells. The format is cell-based. As to conditions: Human immunodeficiency virus 1, MT4, 120 h; HIV-1 IIIB in MT-4 cells, 5 days incubation, Cell Titer Glo; read-out: MT4 EC50. Summed up: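 Read-out: CellTiter-Glo luminescence after 5 days at 37 °C, reflecting survival of MT-4 cells infected with HIV-1 IIIB (1:250 fresh stock dilution) versus mock-infected. Compounds serially diluted into RPMI with 10% FBS; AZT at 5 μM served as positive control.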
(In ATP-based viability assays light output follows the ATP content of the culture.)

Data set [1] in a line: Cytotoxicity assay in MT-4 cells. It is filed as cell-based. The note with it: human; uninfected MT-4 cells, 5 days incubation, Cell Titer Glo; read-out: MT4 CC50. Summed up:
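Viability read by Cell Titer Glo luminescence after 5 days at 37 °C. MT-4 cells, not infected, in complete RPMI (10% FBS), received compound dilution series. Base cytotoxicity set with […] puromycin.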

Take `CCCCOC(=O)Oc1c2n(cc(C(=O)NCc3ccc(F)cc3F)c1=O)[C@@H]1CN(C2=O)[C@@H](C)CC[C@]12CC(C)=NO2` [Example 127, butyl butyl ((3′S,5S,7′R)-10′-((2,4-difluorobenzyl)carbamoyl)-3,3′-dimethyl-1′,11′-dioxo-1′,4′,5′,11′-tetrahydro-3′H,4H,7′H-spiro[isoxazole-5,6′-[2,7]methanopyrido[1,2-a][1,4]diazonin]-12′-yl) carbonate]: the EC50 with HIV-1 (IIIB) amounted to 0.201 nM. Moreover, the CC50 at 5 days in data set [1] turned out to be 13300 nM.

Consider `CCCCOC(=O)Oc1c2n(cc(C(=O)NCc3ccc(F)cc3F)c1=O)[C@@H]1CN(C2=O)[C@@H](C)CC[C@]12CC(OC)=NO2` [Example 128, butyl ((3′S,5S,7′R)-10′-((2,4-difluorobenzyl)carbamoyl)-3-methoxy-3′-methyl-1′,11′-dioxo-1′,4′,5′,11′-tetrahydro-3′H,4H,7′H-spiro[isoxazole-5,6′-[2,7]methanopyrido[1,2-a][1,4]diazonin]-12′-yl) carbonate], for which the EC50 in the data set with HIV-1 (IIIB) stood at 0.21 nM. Also, the CC50 at 5 days in data set [1] worked out at 19300 nM.

Turning to `CCCCCOC(=O)Oc1c2n(cc(C(=O)NCc3ccc(F)cc3F)c1=O)[C@@H]1CN(C2=O)[C@@H](C)CC[C@]12CC(C)=NO2` [Example 129, (3′S,5S,7′R)-10′-((2,4-difluorobenzyl)carbamoyl)-3,3′-dimethyl-1′,11′-dioxo-1′,4′,5′,11′-tetrahydro-3′H,4H,7′H-spiro[isoxazole-5,6′-[2,7]methanopyrido[1,2-a][1,4]diazonin]-12′-yl pentyl carbonate], the concentration for a half-maximal effect (EC50) with HIV-1 (IIIB) worked out at 1.78 nM. In addition, the cytotoxic concentration (CC50) at 5 days in data set [1] is 21700 nM.

As for `CCCCCOC(=O)Oc1c2n(cc(C(=O)NCc3ccc(F)cc3F)c1=O)[C@@H]1CN(C2=O)[C@@H](C)CC[C@]12CC(OC)=NO2` [Example 130, (3′S,5S,7′R)-10′-((2,4-difluorobenzyl)carbamoyl)-3-methoxy-3′-methyl-1′,11′-dioxo-1′,4′,5′,11′-tetrahydro-3′H,4H,7′H-spiro[isoxazole-5,6′-[2,7]methanopyrido[1,2-a][1,4]diazonin]-12′-yl pentyl carbonate], the EC50 in the data set on HIV-1 (IIIB) was determined as 1.83 nM. Further, the CC50 at 5 days in data set [1] is 31700 nM.

For `CCCCCCOC(=O)Oc1c2n(cc(C(=O)NCc3ccc(F)cc3F)c1=O)[C@@H]1CN(C2=O)[C@@H](C)CC[C@]12CC(C)=NO2` [Example 131, (3′S,5S,7′R)-10′-((2,4-difluorobenzyl)carbamoyl)-3,3′-dimethyl-1′,11′-dioxo-1′,4′,5′,11′-tetrahydro-3′H,4H,7′H-spiro[isoxazole-5,6′-[2,7]methanopyrido[1,2-a][1,4]diazonin]-12′-yl hexyl carbonate], in the data set on HIV-1 (IIIB), the half-maximal effective concentration (EC50) came to 0.136 nM. In addition, the CC50 at 5 days in data set [1] is 19800 nM.

As for `CCCCCCOC(=O)Oc1c2n(cc(C(=O)NCc3ccc(F)cc3F)c1=O)[C@@H]1CN(C2=O)[C@@H](C)CC[C@]12CC(OC)=NO2` [Example 132, (3′S,5S,7′R)-10′-((2,4-difluorobenzyl)carbamoyl)-3-methoxy-3′-methyl-1′,11′-dioxo-1′,4′,5′,11′-tetrahydro-3′H,4H,7′H-spiro[isoxazole-5,6′-[2,7]methanopyrido[1,2-a][1,4]diazonin]-12′-yl hexyl carbonate], in the data set on HIV-1 (IIIB), the EC50 was 0.153 nM. In addition, in data set [1], the CC50 at 5 days amounted to 17800 nM.

Consider `CCCCCCCOC(=O)Oc1c2n(cc(C(=O)NCc3ccc(F)cc3F)c1=O)[C@@H]1CN(C2=O)[C@@H](C)CC[C@]12CC(C)=NO2` [Example 133, (3′S,5S,7′R)-10′-((2,4-difluorobenzyl)carbamoyl)-3,3′-dimethyl-1′,11′-dioxo-1′,4′,5′,11′-tetrahydro-3′H,4H,7′H-spiro[isoxazole-5,6′-[2,7]methanopyrido[1,2-a][1,4]diazonin]-12′-yl heptyl carbonate], for which the EC50 in the data set with HIV-1 (IIIB) was found to be 0.819 nM. Also, the CC50 at 5 days in data set [1] stood at 16700 nM.

Regarding `CCCCCCCOC(=O)Oc1c2n(cc(C(=O)NCc3ccc(F)cc3F)c1=O)[C@@H]1CN(C2=O)[C@@H](C)CC[C@]12CC(OC)=NO2` [Example 134, (3′S,5S,7′R)-10′-((2,4-difluorobenzyl)carbamoyl)-3-methoxy-3′-methyl-1′,11′-dioxo-1′,4′,5′,11′-tetrahydro-3′H,4H,7′H-spiro[isoxazole-5,6′-[2,7]methanopyrido[1,2-a][1,4]diazonin]-12′-yl heptyl carbonate], the EC50 in the data set on HIV-1 (IIIB) is 0.516 nM. The CC50 at 5 days in data set [1] was determined as 25700 nM.

Regarding `CCCCCCCCOC(=O)Oc1c2n(cc(C(=O)NCc3ccc(F)cc3F)c1=O)[C@@H]1CN(C2=O)[C@@H](C)CC[C@]12CC(C)=NO2` [Example 135, (3′S,5S,7′R)-10′-((2,4-difluorobenzyl)carbamoyl)-3,3′-dimethyl-1′,11′-dioxo-1′,4′,5′,11′-tetrahydro-3′H,4H,7′H-spiro[isoxazole-5,6′-[2,7]methanopyrido[1,2-a][1,4]diazonin]-12′-yl octyl carbonate], in the data set with HIV-1 (IIIB), the EC50 turned out to be 0.409 nM. For the same molecule, the CC50 at 5 days in data set [1] is 14200 nM.

Regarding `CCCCCCCCOC(=O)Oc1c2n(cc(C(=O)NCc3ccc(F)cc3F)c1=O)[C@@H]1CN(C2=O)[C@@H](C)CC[C@]12CC(OC)=NO2` [Example 136, (3′S,5S,7′R)-10′-((2,4-difluorobenzyl)carbamoyl)-3-methoxy-3′-methyl-1′,11′-dioxo-1′,4′,5′,11′-tetrahydro-3′H,4H,7′H-spiro[isoxazole-5,6′-[2,7]methanopyrido[1,2-a][1,4]diazonin]-12′-yl octyl carbonate], the EC50 in the data set with HIV-1 (IIIB) is 0.496 nM. For the same molecule, the CC50 at 5 days in data set [1] was 23500 nM.

On to `CCCCCCCCCOC(=O)Oc1c2n(cc(C(=O)NCc3ccc(F)cc3F)c1=O)[C@@H]1CN(C2=O)[C@@H](C)CC[C@]12CC(C)=NO2` [Example 137, (3′S,5S,7′R)-10′-((2,4-difluorobenzyl)carbamoyl)-3,3′-dimethyl-1′,11′-dioxo-1′,4′,5′,11′-tetrahydro-3′H,4H,7′H-spiro[isoxazole-5,6′-[2,7]methanopyrido[1,2-a][1,4]diazonin]-12′-yl nonyl carbonate], for which the EC50 with HIV-1 (IIIB) was 2.07 nM. For the same molecule, the CC50 at 5 days in data set [1] is 10200 nM.

Regarding `CCCCCCCCCOC(=O)Oc1c2n(cc(C(=O)NCc3ccc(F)cc3F)c1=O)[C@@H]1CN(C2=O)[C@@H](C)CC[C@]12CC(OC)=NO2` [Example 138, (3′S,5S,7′R)-10′-((2,4-difluorobenzyl)carbamoyl)-3-methoxy-3′-methyl-1′,11′-dioxo-1′,4′,5′,11′-tetrahydro-3′H,4H,7′H-spiro[isoxazole-5,6′-[2,7]methanopyrido[1,2-a][1,4]diazonin]-12′-yl nonyl carbonate], the EC50 with HIV-1 (IIIB) worked out at 2.14 nM. In addition, in data set [1], the CC50 at 5 days came to 14100 nM.

As for `CCCCCCCCCCOC(=O)Oc1c2n(cc(C(=O)NCc3ccc(F)cc3F)c1=O)[C@@H]1CN(C2=O)[C@@H](C)CC[C@]12CC(C)=NO2` [Example 139, decyl ((3′S,5S,7′R)-10′-((2,4-difluorobenzyl)carbamoyl)-3,3′-dimethyl-1′,11′-dioxo-1′,4′,5′,11′-tetrahydro-3′H,4H,7′H-spiro[isoxazole-5,6′-[2,7]methanopyrido[1,2-a][1,4]diazonin]-12′-yl) carbonate], in the data set with HIV-1 (IIIB), the EC50 was determined as 0.995 nM. The half-maximal cytotoxic concentration (CC50) at 5 days in data set [1] was determined as 13200 nM.

Regarding `CCCCCCCCCCOC(=O)Oc1c2n(cc(C(=O)NCc3ccc(F)cc3F)c1=O)[C@@H]1CN(C2=O)[C@@H](C)CC[C@]12CC(OC)=NO2` [Example 140, decyl ((3′S,5S,7′R)-10′-((2,4-difluorobenzyl)carbamoyl)-3-methoxy-3′-methyl-1′,11′-dioxo-1′,4′,5′,11′-tetrahydro-3′H,4H,7′H-spiro[isoxazole-5,6′-[2,7]methanopyrido[1,2-a][1,4]diazonin]-12′-yl) carbonate], the EC50 with HIV-1 (IIIB) worked out at 3.36 nM. The CC50 at 5 days in data set [1] is 15900 nM.

For the molecule `CCCCCCCCCCCCOC(=O)Oc1c2n(cc(C(=O)NCc3ccc(F)cc3F)c1=O)[C@@H]1CN(C2=O)[C@@H](C)CC[C@]12CC(C)=NO2` [Example 141, (3′S,5S,7′R)-10′-((2,4-difluorobenzyl)carbamoyl)-3,3′-dimethyl-1′,11′-dioxo-1′,4′,5′,11′-tetrahydro-3′H,4H,7′H-spiro[isoxazole-5,6′-[2,7]methanopyrido[1,2-a][1,4]diazonin]-12′-yl dodecyl carbonate], the 50% effective concentration (EC50) in the data set with HIV-1 (IIIB) worked out at 2.64 nM. In addition, the CC50 at 5 days in data set [1] turned out to be 16500 nM.

Take `CCCCCCCCCCCCOC(=O)Oc1c2n(cc(C(=O)NCc3ccc(F)cc3F)c1=O)[C@@H]1CN(C2=O)[C@@H](C)CC[C@]12CC(OC)=NO2` [Example 142, (3′S,5S,7′R)-10′-((2,4-difluorobenzyl)carbamoyl)-3-methoxy-3′-methyl-1′,11′-dioxo-1′,4′,5′,11′-tetrahydro-3′H,4H,7′H-spiro[isoxazole-5,6′-[2,7]methanopyrido[1,2-a][1,4]diazonin]-12′-yl dodecyl carbonate]: the EC50 with HIV-1 (IIIB) was found to be 3.64 nM. For the same molecule, in data set [1], the CC50 at 5 days is 36400 nM.

With `CCCCCCCCCCCCCCCCOC(=O)Oc1c2n(cc(C(=O)NCc3ccc(F)cc3F)c1=O)[C@@H]1CN(C2=O)[C@@H](C)CC[C@]12CC(C)=NO2` [Example 144, (3′S,5S,7′R)-10′-((2,4-difluorobenzyl)carbamoyl)-3,3′-dimethyl-1′,11′-dioxo-1′,4′,5′,11′-tetrahydro-3′H,4H,7′H-spiro[isoxazole-5,6′-[2,7]methanopyrido[1,2-a][1,4]diazonin]-12′-yl hexadecyl carbonate], in the data set on HIV-1 (IIIB), the EC50 came out at 6.9 nM. Besides, the CC50 at 5 days in data set [1] is no less than 50000 nM.
